Like-named read-outs stand apart in the source and are kept apart here. One block for each molecule: values may come before it.
How the values were obtained:
[1] = test system: EGFR^19del/T790M/C797S–triple‐mutant cells; conditions: cited from earlier work
[2] = test system: PC‐9‐OR cells (EGFR^19del/T790M/C797S); assay: Proliferation assay; format: cell-based; conditions: PC9-OR, 72 h, read-out: IC50, antiproliferative, PC‐9‐OR cells
[3] = test system: BaF3‐EGFR^19del/T790M cells; assay: Proliferation assay; format: cell-based; conditions: 72 h, read-out: IC50, antiproliferative, BaF3‐EGFR^19del/T790M
PC‐9 (EGFR^19del) cells = assay: Proliferation assay; format: cell-based; conditions: Homo sapiens, PC-9, 72 h, read-out: IC50, antiproliferative, PC‐9 cells
EGFR^T790M patients = conditions: cited from earlier work
PC‐9‐OR cells = assay: Apoptosis, Annexin V‐FITC/PI flow cytometry; format: cell-based; conditions: concentrations between 30 nmol/L and 300 nmol/L, 48 h
[4] = test system: BaF3‐EGFR^19del/T790M/C797S cells; assay: Proliferation assay; format: cell-based; conditions: 72 h, read-out: IC50, antiproliferative, BaF3‐EGFR^19del/T790M/C797S
[5] = test system: BaF3‐EGFR^19del/T790M/C797S cells; assay: Apoptosis, Annexin V‐FITC/PI flow cytometry; format: cell-based; conditions: concentrations between 30 nmol/L and 300 nmol/L, 48 h

Compound: COc1cc(N2CCC(N3CCN(C)CC3)CC2)ccc1Nc1ncc(Cl)c(Nc2ccccc2P(C)(C)=O)n1 [Brigatinib]
effectiveness against EGFR^19del/T790M/C797S–triple‐mutant cells ([1]; in vitro and in vivo): effective

Compound: O=C(Nc1nccs1)C(c1cc(F)ccc1O)N1Cc2ccccc2C1=O (stereo not shown) [EAI045]
effectiveness against EGFR^19del/T790M/C797S–triple‐mutant cells [1]: not effective

Compound: O=C(Nc1nccs1)C(c1cc(F)ccc1O)N1Cc2ccc(-c3ccc(N4CCNCC4)cc3)cc2C1=O (stereo not shown) [JBJ‐04‐125‐02]
effectiveness against EGFR^19del/T790M/C797S–triple‐mutant cells [1]: not effective

IC50 [3]: 40 nM
IC50 [4]: 3380 nM
Compound: C=CC(=O)Nc1cc(Nc2nccc(-c3cn(C)c4ccccc34)n2)c(OC)cc1N(C)CCN(C)C [Osimertinib]
IC50 [2]: 4850 nM
IC50 (PC‐9 (EGFR^19del) cells): 80 nM
response rate (EGFR^T790M patients): 61%
apoptosis (in words) (PC‐9‐OR cells): hardly caused any significant apoptosis
apoptosis (in words) [5]: hardly caused any significant apoptosis

From paper PMC8819286 (Cancer Science, 2021)
